Measurements as given in patent publication US20170150719A1, “FUNGICIDAL PYRAZOLES AND THEIR MIXTURES” (E I DU PONT DE NEMOURS AND COMPANY, priority 2010, published 2017).
Marks after values point to notes of the source that are not given here.

Columns and labels:
Septoria tritici = test: Test F: wheat leaf blotch, preventive spray on wheat seedlings, visual disease rating; type: in vivo; parameters: pest or weed control: dose or concentration left out as unconfirmed; settings: for Test F rating (% disease control) / pest or weed control / Test F rating (% disease control), marked *: preventive spray; for Test F rating (% disease control): rating without asterisk; for pest or weed control / Test F rating (% disease control), marked *: rating marked with asterisk (*), other test suspension concentration than unmarked ratings
From the text: A hyphen (-) indicates no test results.

[1] = tested on: Puccinia recondita f. sp. tritici; test: Test H: wheat leaf rust, preventive spray on wheat seedlings, visual disease rating; settings: for Test H rating (% disease control) / Test H rating (% disease control), marked *: wheat leaf rust, preventive spray; for Test H rating (% disease control): rating without asterisk; for pest or weed control at 40 µg/mL: read-out: Test H rating (% disease control), marked *, wheat leaf rust, preventive spray; for pest or weed control at 40 µg/mL / Test H rating (% disease control), marked *: rating marked with asterisk (*), other test suspension concentration than unmarked ratings
Botrytis cinerea = test: Test A: tomato Botrytis, preventive spray on tomato seedlings, visual disease rating; settings: for Test A rating (% disease control) / Test A rating (% disease control), marked *: tomato Botrytis, preventive spray; for Test A rating (% disease control): 0 = no control relative to controls, rating without asterisk; for pest or weed control at 40 µg/mL: read-out: Test A rating (% disease control), marked *, tomato Botrytis, preventive spray; for pest or weed control at 40 µg/mL / Test A rating (% disease control), marked *: rating marked with asterisk (*), other test suspension concentration than unmarked ratings
[2] = tested on: Blumeria graminis f. sp. tritici; test: Test I: wheat powdery mildew, preventive spray on wheat seedlings, visual disease rating; settings: for Test I rating (% disease control) / Test I rating (% disease control), marked *: wheat powdery mildew, preventive spray; for Test I rating (% disease control): rating without asterisk; for pest or weed control at 40 µg/mL: read-out: Test I rating (% disease control), marked *, wheat powdery mildew, preventive spray; for pest or weed control at 40 µg/mL / Test I rating (% disease control), marked *: rating marked with asterisk (*), other test suspension concentration than unmarked ratings
Septoria nodorum = test: Test E: Septoria glume blotch, preventive spray on wheat seedlings, visual disease rating; settings: Septoria glume blotch on wheat, preventive spray; rating marked with asterisk (*), other test suspension concentration than unmarked ratings
[3] = Botrytis cinerea, in Solanum lycopersicum
[4] = Blumeria graminis, in Triticum aestivum

SMILES | Test F rating (% disease control) (Septoria tritici; 100 = 100% disease control) [%] | Test H rating (% disease control) ([1]; 100 = 100% disease control) [%] | Test A rating (% disease control) (Botrytis cinerea; 100 = 100% disease control) [%] | Test I rating (% disease control) ([2]; 100 = 100% disease control) [%] | pest or weed control (Septoria tritici; Zymoseptoria tritici) [%] | pest or weed control at 40 µg/mL [1] [%] | also measured
Cc1nn(C)c(Nc2c(Cl)cc(F)cc2Cl)c1-c1ccc(C#N)cc1F [compound 249] | 100 | 98 | 100 | 92 | – | – | –
Cc1nn(C)c(Nc2c(Cl)cc(F)cc2Cl)c1-c1ccc(Br)cc1F [compound 233] | 100 | 91 | 36 | 89 | – | – | –
Cc1nn(C)c(Nc2ccc(F)cc2Cl)c1-c1ccc(C#N)cc1F [Compound 248] | 100 | 99 | 99 | 99 | – | – | –
Cc1cccc(C)c1Nc1c(-c2ccc(F)cc2F)c(C)nn1C [Compound 270, 4-(2,4-difluorophenyl)-N-(2,6-dimethylphenyl)-1,3-dimethyl-1H-pyrazol-5-amine] | – | – | – | – | 100 | 41 | pest or weed control at 40 µg/mL (Botrytis cinerea; [3]): 98%; pest or weed control at 40 µg/mL [2, 4]: 91%
Cc1nn(C)c(Nc2ccccc2I)c1-c1ccc(F)cc1Br [compound 243] | 100 | 99 | 100 | 100 | – | – | –
Cc1nn(C)c(Nc2ccccc2Cl)c1-c1ccc(F)cc1Br [compound 272] | 100 | 99 | 100 | 100 | – | – | –
COc1ccc(-c2c(C)nn(C)c2Nc2c(C)cccc2Cl)c(Cl)c1 [Compound 262, 4-(2-chloro-4-methoxyphenyl)-N-(2-chloro-6-methylphenyl)-1,3-dimethyl-1H-pyrazol-5-amine] | – | – | – | – | 100 | 85 | pest or weed control at 40 µg/mL (Botrytis cinerea; [3]): 97%; pest or weed control at 40 µg/mL [2, 4]: 79%; Test E rating (% disease control), marked * (Septoria nodorum): 0* %
COc1ccc(-c2c(C)nn(C)c2Nc2c(F)cccc2Br)c(F)c1 [Compound 261, N-(2-bromo-6-fluorophenyl)-4-(2-fluoro-4-methoxyphenyl)-1,3-dimethyl-1H-pyrazol-5-amine] | – | – | – | – | 100 | 97 | pest or weed control at 40 µg/mL [2, 4]: 95%; Test E rating (% disease control), marked * (Septoria nodorum): 0* %
COc1ccc(-c2c(C)nn(C)c2Nc2c(C)cccc2Br)c(Cl)c1 [Compound 263, N-(2-bromo-6-methylphenyl)-4-(2-chloro-4-methoxyphenyl)-1,3-dimethyl-1H-pyrazol-5-amine] | – | – | – | – | 100 | 79 | pest or weed control at 40 µg/mL (Botrytis cinerea; [3]): 99%; Test I rating (% disease control), marked * [2]: 13* %; Test E rating (% disease control), marked * (Septoria nodorum): 0* %
Cc1nn(C)c(Nc2c(F)cc(F)cc2C#N)c1-c1ccc(C#N)cc1F [compound 250] | 100 | 100 | 0 | 89 | – | – | –
Cc1nn(C)c(Nc2ccccc2I)c1-c1ccc(F)cc1F [compound 246] | 100 | 98 | 100 | 99 | – | – | –
Cc1nn(C)c(Nc2ccc(F)cc2Cl)c1-c1ccc(Br)cc1F [compound 232] | 100 | 90 | 79 | 99 | – | – | –
Cc1nn(C)c(Nc2ccccc2Br)c1-c1ccc(F)cc1Br [compound 242] | – | – | – | – | – | – | Test F rating (% disease control), marked * (Septoria tritici): 100* %; Test H rating (% disease control), marked * [1]: 96* %; Test A rating (% disease control), marked * (Botrytis cinerea): 99* %; Test I rating (% disease control), marked * [2]: 99* %
COc1ccc(-c2c(C)nn(C)c2Nc2c(F)cccc2Cl)c(F)c1 [Compound 260, N-(2-chloro-6-fluorophenyl)-4-(2-fluoro-4-methoxyphenyl)-1,3-dimethyl-1H-pyrazol-5-amine] | – | – | – | – | 100 | 85 | pest or weed control at 40 µg/mL (Botrytis cinerea; [3]): 100%; pest or weed control at 40 µg/mL [2, 4]: 90%; Test E rating (% disease control), marked * (Septoria nodorum): 0* %
Cc1cccc(Cl)c1Nc1c(-c2ccc(F)cc2Br)c(C)nn1C [Compound 276, 4-(2-bromo-4-fluorophenyl)-N-(2-chloro-6-methylphenyl)-1,3-dimethyl-1H-pyrazol-5-amine] | – | – | – | – | 100 | 99 | pest or weed control at 40 µg/mL (Botrytis cinerea; [3]): 100%; pest or weed control at 40 µg/mL [2, 4]: 92%
Cc1nn(C)c(Nc2c(F)cc(Cl)cc2F)c1-c1ccc(C#N)cc1F [Compound 150, 4-[5-[(4-chloro-2,6-difluorophenyl)amino]-1,3-dimethyl-1H-pyrazol-4-yl]-3-fluorobenzonitrile] | – | – | – | – | – | – | pest or weed control at 200 µg/mL (Septoria tritici; Zymoseptoria tritici, 100 = 100% disease control, 0 = no disease control relative to the controls): 100%; pest or weed control at 200 µg/mL ([1]; read-out: Test H rating (disease control), wheat leaf rust, sprayed the day before inoculation, 100 = 100% disease control, 0 = no disease control): 100%; pest or weed control at 200 µg/mL (Botrytis cinerea; Botrytis cinerea, in Solanum lycopersicum, read-out: Test A rating (disease control), tomato Botrytis, 100 = 100% disease control, 0 = no disease control relative to the controls): 100%; pest or weed control at 200 µg/mL ([2]; Blumeria graminis, in Triticum aestivum, read-out: Test I rating (disease control), wheat powdery mildew, 100 = 100% disease control, 0 = no disease control relative to the controls): 100%
COc1ccc(-c2c(C)nn(C)c2Nc2c(C)cccc2Cl)c(F)c1 [Compound 257, N-(2-chloro-6-methylphenyl)-4-(2-fluoro-4-methoxyphenyl)-1,3-dimethyl-1H-pyrazol-5-amine] | – | – | – | – | 100 | 63 | pest or weed control at 40 µg/mL (Botrytis cinerea; [3]): 100%; pest or weed control at 40 µg/mL [2, 4]: 27%; Test E rating (% disease control), marked * (Septoria nodorum): 31* %
Cc1cccc(C)c1Nc1c(-c2ccc(F)cc2Cl)c(C)nn1C [Compound 271, 4-(2-chloro-4-fluorophenyl)-N-(2,6-dimethylphenyl)-1,3-dimethyl-1H-pyrazol-5-amine] | – | – | – | – | 100 | 97 | pest or weed control at 40 µg/mL (Botrytis cinerea; [3]): 99%; pest or weed control at 40 µg/mL [2, 4]: 98%
Cc1nn(C)c(Nc2c(Cl)cccc2Cl)c1-c1ccc(F)cc1Cl [compound 255] | – | – | – | – | – | – | Test F rating (% disease control), marked * (Septoria tritici): 100* %; Test H rating (% disease control), marked * [1]: 99* %; Test A rating (% disease control), marked * (Botrytis cinerea): 100* %; Test I rating (% disease control), marked * [2]: 81* %
Cc1nn(C)c(Nc2c(F)cc(Cl)cc2F)c1-c1ccc(Br)cc1F [compound 236] | 100 | 28 | 47 | 0 | – | – | –
Cc1nn(C)c(Nc2c(F)cc(F)cc2Br)c1-c1ccc(Br)cc1F [compound 235] | 100 | 96 | 99 | 90 | – | – | –
Cc1nn(C)c(Nc2c(Cl)cccc2Cl)c1-c1ccc(F)cc1Br [compound 256] | – | – | – | – | – | – | Test F rating (% disease control), marked * (Septoria tritici): 100* %; Test H rating (% disease control), marked * [1]: 95* %; Test A rating (% disease control), marked * (Botrytis cinerea): 99* %; Test I rating (% disease control), marked * [2]: 64* %
Cc1nn(C)c(Nc2c(Cl)cccc2Cl)c1-c1ccc(F)cc1F [compound 251] | 100 | 100 | 100 | 100 | – | – | –
Cc1nn(C)c(Nc2c(F)cc(F)cc2Cl)c1-c1ccc(Br)cc1F [compound 234] | 100 | 91 | 97 | 79 | – | – | –
Cc1nn(C)c(Nc2c(F)cc(Cl)cc2Cl)c1-c1ccc(Br)cc1F [compound 237] | 100 | 92 | 99 | 95 | – | – | –
